Laboratory results published in patent publication US12582654B2, “Cyano-substituted pyridine and cyano-substituted pyrimidine compound and preparation method therefor and application thereof” (BEIJING SCITECH-MQ PHARMACEUTICALS LIMITED, priority 2019, dated 2026).

Key:
FGFR4 kinase = FGFR4 kinase (Homo sapiens, UniProt P22455); assay: Inhibition of FGFR4 kinase activity (ULight-labeled JAK-1 peptide, EU665/EU615 reading); format: biochemical; conditions: FGFR4 kinase 3.85 nM, ATP 100 μM, enzymatic reaction 2 hours
Chain of FGFR4 kinase (P22455 22-802): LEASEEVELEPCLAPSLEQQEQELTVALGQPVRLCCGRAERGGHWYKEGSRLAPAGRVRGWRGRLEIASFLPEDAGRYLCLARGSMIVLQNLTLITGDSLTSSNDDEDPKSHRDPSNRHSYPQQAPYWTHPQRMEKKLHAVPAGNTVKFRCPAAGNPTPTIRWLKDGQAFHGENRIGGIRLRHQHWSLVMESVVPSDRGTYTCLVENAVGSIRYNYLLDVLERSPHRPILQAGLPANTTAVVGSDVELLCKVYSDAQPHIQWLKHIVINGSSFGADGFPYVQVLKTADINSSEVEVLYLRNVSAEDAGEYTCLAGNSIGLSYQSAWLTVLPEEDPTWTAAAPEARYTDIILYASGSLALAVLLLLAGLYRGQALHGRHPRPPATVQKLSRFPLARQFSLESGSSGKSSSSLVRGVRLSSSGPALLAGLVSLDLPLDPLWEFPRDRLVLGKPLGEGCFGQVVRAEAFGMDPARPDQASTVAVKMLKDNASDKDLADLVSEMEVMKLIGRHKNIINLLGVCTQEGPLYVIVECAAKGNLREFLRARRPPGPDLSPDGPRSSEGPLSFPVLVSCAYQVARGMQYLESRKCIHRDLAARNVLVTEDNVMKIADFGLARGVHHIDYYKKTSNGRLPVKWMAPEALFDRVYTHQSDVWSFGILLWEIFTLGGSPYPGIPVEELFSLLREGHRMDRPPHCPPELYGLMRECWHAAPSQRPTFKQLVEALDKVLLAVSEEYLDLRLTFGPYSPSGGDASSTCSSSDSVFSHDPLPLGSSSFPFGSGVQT
How it was run: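 TR-FRET kinase assay using 3.85 nM FGFR4, 100 μM ATP and 100 nM ULight-JAK-1 (Tyr1023) peptide; 5 min enzyme–compound preincubation, then 2 h at room temperature. Compounds at 11 3-fold dilutions from 2.5 μM down to 0.042 nM, 1% DMSO. IC50 from EU665/EU615 ratio inhibition curves.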

FGFR4 V550L kinase = FGFR4 V550L kinase (Homo sapiens, UniProt P22455, V550L); assay: Inhibition of FGFR4 V550L mutant kinase activity (ULight-labeled PolyGT, EU665/EU615 reading); format: biochemical; conditions: FGFR4 V550L kinase 1 nM, ATP 10 μM, enzymatic reaction 2 hours
Chain of FGFR4 V550L kinase (P22455 22-802 V550L): as the sequence (P22455 22-802) above, with V529L counted along it
How it was run: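 TR-FRET kinase assay: 1 nM FGFR4 V550L, 10 μM ATP, 100 nM ULight-PolyGT substrate, 2 h at room temperature after 5 min compound–enzyme preincubation, 1% DMSO. Compound tested as 11-point 3-fold dilution from 2.5 μM to 0.042 nM final. Signal as EU665/EU615 ratio; IC50 fitted from % inhibition.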

Ba/F3 ETV6-FGFR4 cells = molecular target: T1, Ba/F3 ETV6-FGFR4 cells (Homo sapiens, UniProt P22455); assay: Inhibition of cell proliferation (CCK-8), Ba/F3 ETV6-FGFR4 cells; format: cell-based; conditions: 72 hours of incubation, read-out: Ba/F3 ETV6-FGFR4 IC50
T1 construct: fused on or other part: N-terminal part of ETV6 (TEL), the oligomerising partner that makes the FGFR4 kinase constitutively active; P41212 (Transcription factor ETV6)
T1 sequence (P22455 whole entry, change not shown, the tested form may be a part): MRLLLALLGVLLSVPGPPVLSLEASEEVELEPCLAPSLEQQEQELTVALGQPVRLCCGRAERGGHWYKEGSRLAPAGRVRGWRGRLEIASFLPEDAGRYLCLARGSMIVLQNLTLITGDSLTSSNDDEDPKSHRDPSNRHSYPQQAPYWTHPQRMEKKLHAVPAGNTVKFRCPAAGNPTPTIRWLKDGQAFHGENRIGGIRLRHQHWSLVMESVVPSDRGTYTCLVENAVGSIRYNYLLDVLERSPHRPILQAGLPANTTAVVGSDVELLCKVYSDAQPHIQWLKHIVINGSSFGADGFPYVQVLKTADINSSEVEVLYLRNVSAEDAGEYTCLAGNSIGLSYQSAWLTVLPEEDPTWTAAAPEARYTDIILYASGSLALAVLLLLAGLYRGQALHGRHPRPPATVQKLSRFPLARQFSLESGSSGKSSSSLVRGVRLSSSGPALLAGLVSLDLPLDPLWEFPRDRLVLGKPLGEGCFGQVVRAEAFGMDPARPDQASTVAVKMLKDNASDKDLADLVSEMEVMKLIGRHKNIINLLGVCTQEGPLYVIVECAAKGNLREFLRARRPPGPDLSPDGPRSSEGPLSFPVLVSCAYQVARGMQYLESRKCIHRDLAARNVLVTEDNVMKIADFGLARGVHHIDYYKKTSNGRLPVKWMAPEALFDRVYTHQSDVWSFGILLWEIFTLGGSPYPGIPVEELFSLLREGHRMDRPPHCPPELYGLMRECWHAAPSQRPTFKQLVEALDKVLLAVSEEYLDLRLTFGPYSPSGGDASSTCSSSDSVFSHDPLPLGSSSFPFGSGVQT
How it was run: (§1)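 Ba/F3 cells expressing ETV6-FGFR4 or ETV6-FGFR4-V550L exposed for 72 h to 9 concentrations from 4-fold serial dilution (0.25% DMSO final). Viability by CCK-8, OD 450 nm after 1–2 h at 37 °C, relative to untreated and cell-free blanks; IC50 from curve fitting.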

[1] = molecular target: T2, Ba/F3 ETV6-FGFR4-V550L cells (Homo sapiens, UniProt P22455, V550L, cells depend on it); assay: Inhibition of cell proliferation (CCK-8), Ba/F3 ETV6-FGFR4-V550L cells; format: cell-based; conditions: 72 hours of incubation, read-out: Ba/F3 ETV6-FGFR4-V550L IC50
T2 construct: fused on or other part: N-terminal part of ETV6 (TEL), the oligomerising partner of the fusion; already named as the first entry; P41212 (Transcription factor ETV6)
T2 sequence (P22455 whole entry V550L, the tested form may be a part): as the sequence (P22455 whole entry, change not shown, the tested form may be a part) above, with V550L counted along it
How it was run: as §1

Row | SMILES | IC50 (FGFR4 kinase) [nM] | IC50 (FGFR4 V550L kinase) [nM] | GI50 (Ba/F3 ETV6-FGFR4 cells) [nM] | GI50 [1] [nM]
1 | C=CC(=O)Nc1cc(N2CCC(N(C)CCF)CC2)ccc1Nc1ncc(C#N)c(Nc2ccccc2OC(C)C)n1 [Example 61, N-(2-((5-cyano-4-((2-isopropoxyphenyl)amino)pyrimidin-2-yl)amino)-5-(4-((2-fluoroethyl) (methyl)amino)piperidin-1-yl)phenyl) acrylamide] | 10 to 50 | ≤ 10 | ≤ 10 | ≤ 10
2 | C=CC(=O)Nc1cc(N2CCC(N(C)C3CCC3)CC2)ccc1Nc1ncc(C#N)c(Nc2ccccc2OC(C)C)n1 [Example 62, N-(2-((5-cyano-4-((2-isopropoxyphenyl)amino)pyrimidin-2-yl)amino)-5-(4-(cyclobutyl(methyl)amino)piperidin-1-yl)phenyl) acrylamide] | 10 to 50 | 10 to 50 | ≤ 10 | ≤ 10
3 | C=CC(=O)Nc1cc(N2CCC(N3CCC(F)CC3)CC2)ccc1Nc1ncc(C#N)c(Nc2ccccc2OC(C)C)n1 [Example 64, N-(2-((5-cyano-4-((2-isopropoxyphenyl)amino)pyrimidin-2-yl)amino)-5-(4-fluoro-[1,4-bipiperidin]-1‘- yl)phenyl) acrylamide] | 10 to 50 | 10 to 50 | ≤ 10 | ≤ 10
4 | C=CC(=O)Nc1cc(N2CCC(N3CCC(O)CC3)CC2)ccc1Nc1ncc(C#N)c(Nc2ccccc2OC(C)C)n1 [Example 65, N-(2-((5-cyano-4-((2-isopropoxyphenyl)amino)pyrimidin-2-yl)amino)-5-(4-hydroxy-[1,4-bipiperidin]-1′-yl)phenyl) acrylamide] | 10 to 50 | ≤ 10 | ≤ 10 | ≤ 10
5 | C=CC(=O)Nc1cc(N2CCC(N(C)CC(C)(C)O)CC2)ccc1Nc1ncc(C#N)c(Nc2ccccc2OC(C)C)n1 [Example 67, N-(2-((5-cyano-4-((2-isopropoxyphenyl)amino)pyrimidin-2-yl)amino)-5-(4-((2-hydroxy-2-methylpropyl) (methyl)amino)piperidin-1-yl)phenyl) acrylamide] | 10 to 50 | ≤ 10 | ≤ 10 | ≤ 10
6 | C=CC(=O)Nc1cc(N2CCC(N3CCC3)CC2)ccc1Nc1ncc(C#N)c(Nc2ccccc2OC(C)C)n1 [Example 70, N-(5-(4-(azetidin-1-yl)piperidin-1-yl)-2-((5-cyano-4-((2-isopropoxyphenyl)amino)pyrimidin-2-yl)amino)phenyl) acrylamide] | 50 to 100 | ≤ 10 | ≤ 10 | ≤ 10
7 | C=CC(=O)Nc1cc(N2CCC(N3CCS(=O)(=O)CC3)CC2)ccc1Nc1ncc(C#N)c(Nc2ccccc2OC(C)C)n1 [Example 76, N-(2-((5-cyano-4-((2-isopropoxyphenyl)amino)pyrimidin-2-yl)amino)-5-(4-(1,1-dioxidothiomorpholino)piperidin-1-yl)phenyl) acrylamide] | 10 to 50 | 10 to 50 | ≤ 10 | ≤ 10
8 | C=CC(=O)Nc1cc(N2CCC(N3CCN(C)CC3)CC2)ccc1Nc1ncc(C#N)c(Nc2ccccc2CC(C)C)n1 [Example 79, N-(2-((5-cyano-4-((2-isobutylphenyl)amino)pyrimidin-2-yl)amino)-5-(4-(4-methylpiperazin-1-yl)piperidin-1-yl)phenyl)acrylamide] | 10 to 50 | 50 to 100 | 10 to 50 | 10 to 50

The remaining lines, values ahead:

Row | IC50 (FGFR4 kinase) [nM] | IC50 (FGFR4 V550L kinase) [nM] | GI50 (Ba/F3 ETV6-FGFR4 cells) [nM] | GI50 [1] [nM] | SMILES
9 | 10 to 50 | ≤ 10 | ≤ 10 | ≤ 10 | C=CC(=O)Nc1cc(N2CCC(N(C)CCO)CC2)ccc1Nc1ncc(C#N)c(Nc2ccccc2OC(C)C)n1 [Example 60, N-(2-((5-cyano-4-((2-isopropoxyphenyl)amino)pyrimidin-2-yl)amino)-5-(4-((2-hydroxyethyl) (methyl)amino)piperidin-1-yl)phenyl) acrylamide]
10 | ≤ 10 | 10 to 50 | ≤ 10 | ≤ 10 | C=CC(=O)Nc1cc(N2CCC(N(C)C3CC3)CC2)ccc1Nc1ncc(C#N)c(Nc2ccccc2OC(C)C)n1 [Example 63, N-(2-((5-cyano-4-((2-isopropoxyphenyl)amino)pyrimidin-2-yl)amino)-5-(4-(cyclopropyl (methyl)amino)piperidin-1-yl)phenyl) acrylamide]
11 | ≤ 10 | 10 to 50 | ≤ 10 | ≤ 10 | C=CC(=O)Nc1cc(N2CCC(N3CCC(C#N)CC3)CC2)ccc1Nc1ncc(C#N)c(Nc2ccccc2OC(C)C)n1 [Example 66, N-(2-((5-cyano-4-((2-isopropoxyphenyl)amino)pyrimidin-2-yl)amino)-5-(4-cyano-[1,4-bipiperidin]-1′-yl)phenyl) acrylamide]
12 | ≤ 10 | ≤ 10 | ≤ 10 | ≤ 10 | C=CC(=O)Nc1cc(N2CCC(N(C)CCCO)CC2)ccc1Nc1ncc(C#N)c(Nc2ccccc2OC(C)C)n1 [Example 68, N-(2-((5-cyano-4-((2-isopropoxyphenyl)amino)pyrimidin-2-yl)amino)-5-(4-((3-hydroxypropyl) (methyl)amino)piperidin-1-yl)phenyl) acrylamide]
13 | ≤ 10 | ≤ 10 | ≤ 10 | ≤ 10 | C=CC(=O)Nc1cc(N2CCC(N(C)CCCOC)CC2)ccc1Nc1ncc(C#N)c(Nc2ccccc2OC(C)C)n1 [Example 69, N-(2-((5-cyano-4-((2-isopropoxyphenyl)amino)pyrimidin-2-yl)amino)-5-(4-((3-methoxypropyl) (methyl)amino)piperidin-1-yl)phenyl) acrylamide]
14 | ≤ 10 | 50 to 100 | ≤ 10 | 10 to 50 | C=CC(=O)Nc1cc(N2CCC(N3CCC(F)(F)CC3)CC2)ccc1Nc1ncc(C#N)c(Nc2ccccc2OC(C)C)n1 [Example 71, N-(2-((5-cyano-4-((2-isopropoxyphenyl)amino)pyrimidin-2-yl)amino)-5-(4,4-difluoro-[1,4-bipiperidin]-1′-yl)phenyl) acrylamide]
15 | ≤ 10 | 10 to 50 | ≤ 10 | ≤ 10 | C=CC(=O)Nc1cc(N2CCC(N(C)C3COC3)CC2)ccc1Nc1ncc(C#N)c(Nc2ccccc2OC(C)C)n1 [Example 72, N-(2-((5-cyano-4-((2-isopropoxyphenyl)amino)pyrimidin-2-yl)amino)-5-(4-(methyl(oxetan-3-yl)amino)piperidin-1-yl)phenyl) acrylamide]
16 | ≤ 10 | ≤ 10 | ≤ 10 | ≤ 10 | C=CC(=O)Nc1cc(N2CCC(N(C)CCSC)CC2)ccc1Nc1ncc(C#N)c(Nc2ccccc2OC(C)C)n1 [Example 73]
17 | ≤ 10 | ≤ 10 | ≤ 10 | 10 to 50 | C=CC(=O)Nc1cc(N2CCC(N(C)CCCSC)CC2)ccc1Nc1ncc(C#N)c(Nc2ccccc2OC(C)C)n1 [Example 74]
18 | ≤ 10 | ≤ 10 | ≤ 10 | ≤ 10 | C=CC(=O)Nc1cc(N2CCC(N(C)CCCS(C)(=O)=O)CC2)ccc1Nc1ncc(C#N)c(Nc2ccccc2OC(C)C)n1 [Example 75, N-(2-((5-cyano-4-((2-isopropoxyphenyl)amino)pyrimidin-2-yl)amino)-5-(4-(methyl(3-(methylsulfonyl)propyl)amino)piperidin-1-yl)phenyl) acrylamide]
19 | ≤ 10 | ≤ 10 | ≤ 10 | ≤ 10 | C=CC(=O)Nc1cc(N2CCC(N(C)C3CCOC3)CC2)ccc1Nc1ncc(C#N)c(Nc2ccccc2OC(C)C)n1 (stereo not drawn) [Example 77, N-(2-((5-cyano-4-((2-isopropoxyphenyl)amino)pyrimidin-2-yl)amino)-5-(4-(methyl (tetrahydrofuran-3-yl)amino)piperidin-1-yl)phenyl) acrylamide]
20 | ≤ 10 | ≤ 10 | ≤ 10 | ≤ 10 | C=CC(=O)Nc1cc(N2CCC(N(C)C3CCOCC3)CC2)ccc1Nc1ncc(C#N)c(Nc2ccccc2OC(C)C)n1 [Example 78, N-(2-((5-cyano-4-((2-isopropoxyphenyl)amino)pyrimidin-2-yl)amino)-5-(4-(methyl(tetrahydro-2H-pyran-4-yl)amino)piperidin-1-yl)phenyl) acrylamide]
21 | ≤ 10 | ≤ 10 | ≤ 10 | ≤ 10 | C=CC(=O)Nc1cc(N2CCC(N3CCN(C)CC3)CC2)ccc1Nc1ncc(C#N)c(Nc2ccccc2S(=O)(=O)C(C)C)n1 [Example 80, N-(2-((5-cyano-4-((2-(isopropylsulfonyl)phenyl)amino)pyrimidin-2-yl)amino)-5-(4-(4-methylpiperazin-1-yl)piperidin-1-yl)phenyl) acrylamide]
